Measured values as given in patent publication EP1412028B1, “TETRAHYDROINDOLONE DERIVATIVES LINKED TO ARYLPIPERAZINES” (Spectrum Pharmaceuticals, Inc., priority 2001, dated 2003).
Read-outs that look alike come from different tables or passages of the source.

Columns and labels:
male C-57 mice = test: PCP disruption of pre-pulse inhibition (PPI) of the acoustic startle response; type: in vivo; settings: for ED50: Mus musculus; for PCP Disruption of Pre-pulse Inhibition, reversal: mice, PCP 5mg/kg IP, route not given, NEO compounds as oxalate
Experimental: The non-competitive NMDA receptor antagonist phencyclidine (PCP) reduces pre-pulse inhibition (PPI) of the acoustic startle response in rodents. […] For testing of PPI, male C-57 mice were assigned to five dose groups of eight animals per group, and vehicle or test compound were administered orally (PO) or subcutaneously (SC) 20 minutes prior to intraperitoneal (IP) administration of vehicle or PCP (5mg/kg). Ten minutes following PCP administration, the mice were placed into Hamilton-Kinder startle chambers and evaluation of pre-pulse inhibition procedure was performed. Following a five-minute acclimatization period with background white noise (65db), mice were exposed to five different trial types. Trials were presented […] in a quasi-random order, with randomized 5 to 25 second inter-trial intervals. Trials were: stimulus only trial (120db white noise, 50ms stimulus); two different prepulse+pulse trials in which a 20ms 5db; or 10db stimuli above a 65db background preceded the 120db pulse by 120ms; a 10dbprepulse without a 120db pulse; and a no stimulus trial, in which only the background noise was presented. Table 2 PCP Pre-pulse Inhibition

Caco-2 cells [1] = test: Membrane permeability (Papp) across Caco-2 cell monolayers; settings: for RATIO Papp^B-A/ Papp^A-B / Papp AP- to- BL / Papp BL- to- AP: Caco-2 monolayer; for Papp AP- to- BL: apical to basolateral direction; for Papp BL- to- AP: basolateral to apical direction
Experimental: (§1) Caco-2 cells were used to evaluate the membrane permeability of eight embodiments of the present invention. Monolayers were grown to confluence and the integrity checked by transepithelial electrical resistance (TEER) and permeability of Lucifer Yellow. The expression of P-glycoprotein was confirmed by measuring the permeability of digoxin alone and in the presence of verapamil. Permeability measurements were taken for each compound in the apical to basolateral (AP-BL) direction, and the basolateral to apical (BL-AP) direction.

mice = test: Conditioned avoidance responding (CAR, active avoidance); type: in vivo; settings: for ED50: Mus musculus
Experimental: Training: Consists of 20 trials with variable inter-trial intervals (Trained to 80% Avoidance Criteria). After a one-minute acclimation period, the house light and an acoustic 90dB tone (conditioned stimuli) are presented. A response (crossing to dark compartment) within 5 seconds ends the trial and trial is recorded as avoidance response (CAR). […] To avoid shock, animals learn to move from the lighted side of the chamber to the dark side when the cue is presented (avoidance) or moved when the shock is administered (escape).Testing: Vehicle or test compounds are administered S.C. 20 minutes before the test session. (Checking for disruption of cognition and attention) Table 3. Conditioned Avoidance Responding

Caco-2 cells [2] = system: Caco-2 cells
Experimental: as §1

[3] = sc, read-out: PCP Disruption of Pre-pulse Inhibition - SC, 5pp ED50
[4] = sc, read-out: PCP Disruption of Pre-pulse Inhibition - SC, 10pp ED50
[5] = sc, read-out: Conditioned Avoidance Responding, Latency ED50
[6] = sc, read-out: Conditioned Avoidance Responding, avoidance ED50
[7] = mice, SC 20 minutes before the test session
[8] = mice, SC 20 minutes before the test session, read-out: Conditioned Avoidance Responding, Latency ED50
[9] = read-out: PCP Disruption of Pre-pulse Inhibition, 10pp ED50
[10] = mice, SC 20 minutes before the test session, read-out: Conditioned Avoidance Responding, avoidance ED50

Structure (SMILES): CN1CCN(C2=Nc3cc(Cl)ccc3Nc3ccccc32)CC1 [Clozapine, clozapine, reference compound]
- ED50 (male C-57 mice; [3]): 2.87 mg/kg
- ED50 (male C-57 mice; [4]): 3 mg/kg
- EFFLUX LIMITED (Caco-2 cells [1]; Caco-2, Yes/No judgement): No
- RATIO Papp^B-A/ Papp^A-B (Caco-2 cells [1]): 0.65
- Papp AP- to- BL (Caco-2 cells [1]): 15.3±0.7 cm/s x 10^6
- Papp BL- to- AP (Caco-2 cells [1]): 7.4±1.1 cm/s x 10^6
- ED50 (mice; [5]): 3.03 mg/kg
- ED50 (mice; [6]): 6.3 mg/kg

Structure (SMILES): O=C1CCCc2c1ccn2CCCN1CCN(c2cccc(C(F)(F)F)c2)CC1 [NEO-356, 1-{3-[4-(3-Trifluoromethylphenyl)piperazin-1-yl]propyl}-1,5,6,7-tetrahydroindol-4-one]
- EFFLUX LIMITED (Caco-2 cells [2]): No
- PERMEABILITY (Caco-2 cells [2]): High
- ED50 (male C-57 mice; [3]): 2.31 mg/kg
- PCP Disruption of Pre-pulse Inhibition, reversal (male C-57 mice): No reversal
- RATIO Papp^B-A/ Papp^A-B (Caco-2 cells [1]): 0.41
- Papp AP- to- BL (Caco-2 cells [1]): 21.5±2.9 cm/s x 10^6
- Papp BL- to- AP (Caco-2 cells [1]): 8.8±0.3 cm/s x 10^6
- Conditioned Avoidance Responding, overall effect (mice; [7]): No effect

Structure (SMILES): O=C1CCCc2c1ccn2CCN1CCN(c2cccc(C(F)(F)F)c2)CC1 [NEO-359, 1-{2-[4-(3-Trifluoromethylphenyl)piperazine-1-yl]ethyl}-1,5,6,7-tetrahydroindol-4-one]
- EFFLUX LIMITED (Caco-2 cells [2]): No
- PERMEABILITY (Caco-2 cells [2]): High
- ED50 (male C-57 mice; [3]): 3.58 mg/kg
- ED50 (male C-57 mice; [4]): 0.79 mg/kg
- PCP Disruption of Pre-pulse Inhibition, reversal (male C-57 mice): No reversal
- RATIO Papp^B-A/ Papp^A-B (Caco-2 cells [1]): 0.32
- Papp AP- to- BL (Caco-2 cells [1]): 24.0±3.9 cm/s x 10^6
- Papp BL- to- AP (Caco-2 cells [1]): 7.6±0.5 cm/s x 10^6
- ED50 (mice; [8]): 100 mg/kg
- Conditioned Avoidance Responding, effect on escape or avoidance (mice; [7]): No effect on escape or avoidance
- Conditioned Avoidance Responding, effect on latency (mice; [7]): Significant decrease in latency

Structure (SMILES): O=C1CCCc2c1ccn2CCCN1CCN(c2cccc(Cl)c2)CC1 [NEO-363, 1-{3-[4-(3-Chlorophenyl)piperazine-1-yl]propyl}-1,5,6,7-tetrahydroindol-4-one]
- EFFLUX LIMITED (Caco-2 cells [2]): No
- PERMEABILITY (Caco-2 cells [2]): High
- ED50 (male C-57 mice; [3]): 2.3 mg/kg
- ED50 (male C-57 mice; [4]): 2.3 mg/kg
- ED50 (male C-57 mice; [9]): 3.1 mg/kg
- RATIO Papp^B-A/ Papp^A-B (Caco-2 cells [1]): 0.75
- Papp AP- to- BL (Caco-2 cells [1]): 18.0±0.7 cm/s x 10^6
- Papp BL- to- AP (Caco-2 cells [1]): 13.1±1.1 cm/s x 10^6
- Conditioned Avoidance Responding, overall effect (mice; [7]): No effect

Structure (SMILES): COc1ccccc1N1CCN(CCCn2ccc3c2CCCC3=O)CC1 [NEO-370, 1-{3-[4-(2-Methoxyphenyl)piperazine-1-yl]propyl}-1,5,6,7-tetrahydroindol-4-one]
- EFFLUX LIMITED (Caco-2 cells [2]): No
- PERMEABILITY (Caco-2 cells [2]): High
- ED50 (male C-57 mice; [3]): 0.79 mg/kg
- ED50 (male C-57 mice; [4]): 0.79 mg/kg
- ED50 (male C-57 mice; read-out: PCP Disruption of Pre-pulse Inhibition, 5pp ED50): 0.96 mg/kg
- ED50 (male C-57 mice; [9]): 0.96 mg/kg
- RATIO Papp^B-A/ Papp^A-B (Caco-2 cells [1]): 0.67
- Papp AP- to- BL (Caco-2 cells [1]): 32.1±8.1 cm/s x 10^6
- Papp BL- to- AP (Caco-2 cells [1]): 20.0±3.4 cm/s x 10^6
- ED50 (mice; [8]): 3.25 mg/kg
- ED50 (mice; [10]): 6.2 mg/kg
- Conditioned Avoidance Responding, effect on avoidance (mice; [7]): Significant reduction in avoidance
- Conditioned Avoidance Responding, effect on latency (mice; [7]): Significant increase in latency

Structure (SMILES): O=C1CCCc2c1ccn2CCN1CCN(c2cccc(Cl)c2)CC1 [NEO-376, 1-{2-[4-(3-Chloro-phenyl)-piperazin-1-yl]-ethyl}-1,5,6,7-tetrahydro-indol-4-one]
- EFFLUX LIMITED (Caco-2 cells [2]): No
- PERMEABILITY (Caco-2 cells [2]): High
- ED50 (male C-57 mice; [3]): 0.79 mg/kg
- ED50 (male C-57 mice; [4]): 0.79 mg/kg
- ED50 (male C-57 mice; [9]): 0.79 mg/kg
- RATIO Papp^B-A/ Papp^A-B (Caco-2 cells [1]): 0.43
- Papp AP- to- BL (Caco-2 cells [1]): 20.4±1.8 cm/s x 10^6
- Papp BL- to- AP (Caco-2 cells [1]): 9.4±0.3 cm/s x 10^6
- ED50 (mice; [8]): 17.5 mg/kg
- Conditioned Avoidance Responding, effect on escape or avoidance (mice; [7]): No effect on escape or avoidance
- Conditioned Avoidance Responding, effect on latency (mice; [7]): significant increase in latency

Structure (SMILES): COc1ccccc1N1CCN(CCn2ccc3c2CCCC3=O)CC1 [NEO-377, 1-{2-[4-(2-Methoxyphenyl)-piperazin-1-yl]-ethyl}-1,5,6,7-tetrahydro-indol-4-one]
- EFFLUX LIMITED (Caco-2 cells [2]): No
- PERMEABILITY (Caco-2 cells [2]): High
- ED50 (male C-57 mice; [3]): 2.31 mg/kg
- ED50 (male C-57 mice; [4]): 1.12 mg/kg
- ED50 (male C-57 mice; [9]): 2.3 mg/kg
- RATIO Papp^B-A/ Papp^A-B (Caco-2 cells [1]): 0.60
- Papp AP- to- BL (Caco-2 cells [1]): 26.0±1.8 cm/s x 10^6
- Papp BL- to- AP (Caco-2 cells [1]): 15.5±2.9 cm/s x 10^6
- ED50 (mice; [8]): 3 mg/kg
- ED50 (mice; [10]): 7.57 mg/kg
- Conditioned Avoidance Responding, effect on avoidance (mice; [7]): Significant reduction in avoidance
- Conditioned Avoidance Responding, effect on latency (mice; [7]): Significant increase in latency

Structure (SMILES): O=C1CCCc2c1ccn2CCCN1CCN(c2ncccn2)CC1 [NEO-381, 1-{3-[4-(2-Pyrimidyl)piperazine-1-yl]propyl}-1,5,6,7-tetrahydroindol-4-one]
- EFFLUX LIMITED (Caco-2 cells [2]): No
- PERMEABILITY (Caco-2 cells [2]): High
- ED50 (male C-57 mice; [3]): 0.79 mg/kg
- ED50 (male C-57 mice; [4]): 3.58 mg/kg
- PCP Disruption of Pre-pulse Inhibition, reversal (male C-57 mice): No reversal
- RATIO Papp^B-A/ Papp^A-B (Caco-2 cells [1]): 0.77
- Papp AP- to- BL (Caco-2 cells [1]): 32.9±9.6 cm/s x 10^6
- Papp BL- to- AP (Caco-2 cells [1]): 25.3±0.7 cm/s x 10^6
- Conditioned Avoidance Responding, overall effect (mice; [7]): No effect

Structure (SMILES): O=C1CCCc2c1ccn2CCCCN1CCN(c2cccc(C(F)(F)F)c2)CC1 [NEO-392, 1-{4-[4-(3-Trifluoromethylphenyl)piperazin-1-yl]-butyl}-1,5,6,7-tetrahydroindol-4-one]
- EFFLUX LIMITED (Caco-2 cells [2]): No
- PERMEABILITY (Caco-2 cells [2]): High
- ED50 (male C-57 mice; [3]): 0.23 mg/kg
- ED50 (male C-57 mice; [4]): 0.23 mg/kg
- ED50 (male C-57 mice; [9]): 1.12 mg/kg
- RATIO Papp^B-A/ Papp^A-B (Caco-2 cells [1]): 0.58
- Papp AP- to- BL (Caco-2 cells [1]): 27.1±1.1 cm/s x 10^6
- Papp BL- to- AP (Caco-2 cells [1]): 15.7±1.3 cm/s x 10^6
- ED50 (mice; [8]): 3.25 mg/kg
- ED50 (mice; [10]): 4.93 mg/kg
- Conditioned Avoidance Responding, effect on avoidance (mice; [7]): Significant reduction in avoidance
- Conditioned Avoidance Responding, effect on latency (mice; [7]): Significant increase in latency

Structure (SMILES): CC(C)NCC(O)COc1cccc2ccccc12 (stereo not drawn) [Propranolol, reference compound]
- EFFLUX LIMITED (Caco-2 cells [2]): No
- PERMEABILITY (Caco-2 cells [2]): High
- Papp AP- to- BL (Caco-2 cells [2]; human): 17.3±2.3 cm/s x 10^6

Structure (SMILES): Cc1nc2n(c(=O)c1CCN1CCC(c3noc4cc(F)ccc34)CC1)CCCC2 [Risperidone, risperidone, reference compound]
- ED50 (male C-57 mice; [3]): 0.036 mg/kg
- ED50 (male C-57 mice; [4]): 0.036 mg/kg
- ED50 (mice; [5]): 0.26 mg/kg
- ED50 (mice; [6]): 0.19 mg/kg
- Conditioned Avoidance Responding, effect on avoidance (mice; [7]): Significant reduction in avoidance
- Conditioned Avoidance Responding, effect on latency (mice; [7]): Significant increase in latency
